What all share (type): functional, cell-based
For one assay, the system named is HCT-116. Description: Cytotoxicity against human HCT116 cells assessed as growth inhibition after 72 hrs by MTT assay. The following applies: HCT-116, 72 h.
The test system of a further assay is HepG2. Description: Cytotoxicity against human HepG2 cells assessed as growth inhibition after 72 hrs by MTT assay. To be noted: HepG2, 72 h.
A further assay deals with BGC-823. Description: Cytotoxicity against human BGC823 cells assessed as growth inhibition after 72 hrs by MTT assay. To be noted: BGC-823, 72 h.
The next assay concerns A549. Description: Cytotoxicity against human A549 cells assessed as growth inhibition after 72 hrs by MTT assay. To be noted: A549, 72 h.
Another assay concerns A2780. Description: Cytotoxicity against human A2780 cells assessed as growth inhibition after 72 hrs by MTT assay. The following applies: A2780, 72 h.

`Cc1cccc(CN2CCc3ncn(COCc4ccccc4)c3/C(=C/c3ccccc3)C2=O)c1`: the IC50 with HCT-116 amounted to 3.8 µM; with HepG2 it was 34.3 µM; in the assay on BGC-823 it was 14.6 µM; in the assay on A549 it was 16.1 µM; in the assay with A2780 it was 26.3 µM.

For `O=C1/C(=C\c2ccccc2)c2c(ncn2COCc2ccccc2)CCN1Cc1ccccc1`, the IC50 in the assay with HCT-116 came to 20 µM; in the assay with HepG2, 13.9 µM; with BGC-823 it was 20.4 µM; in the assay with A549, 9.9 µM; with A2780, 20.4 µM.

For `O=C1/C(=C\c2ccccc2)c2[nH]cnc2CCN1Cc1ccccc1`, the IC50 in the assay on HCT-116 was over 100 µM; with HepG2 it was over 100 µM; in the assay with BGC-823, over 100 µM; with A549, 51.1 µM; in the assay on A2780, over 100 µM.

As to `O=C1/C(=C\c2ccccc2)c2c(ncn2COCc2ccccc2)CCN1Cc1ccc(-c2ccccc2)cc1`, the IC50 in the assay on HCT-116 came out at 14 µM; in the assay with HepG2, 72.5 µM; in the assay with BGC-823 it was 81 µM; in the assay on A549, 18.3 µM; in the assay with A2780, 48.3 µM.

Turning to `Cc1ccc(CN2CCc3ncn(COCc4ccccc4)c3/C(=C/c3ccccc3)C2=O)cc1`, the IC50 in the assay with HCT-116 came to 7.94 µM; in the assay on HepG2, 44.6 µM; in the assay on BGC-823, 39.1 µM; with A549 it was 11.4 µM; with A2780, 21.2 µM.

For the compound `O=C1/C(=C\c2ccccc2)c2c(ncn2COCc2ccccc2)CCN1Cc1ccc2ccccc2c1`, the IC50 came to 19.4 µM in the assay on HCT-116; 23.7 µM with HepG2; 93.3 µM in the assay with BGC-823; 26.4 µM in the assay on A549; 72.8 µM in the assay on A2780.

On to `O=C1/C(=C\c2ccccc2)c2c(ncn2COCc2ccccc2)CCN1Cc1ccc(Cl)cc1`, for which the IC50 with HCT-116 amounted to 10.5 µM; in the assay on HepG2, 47.9 µM; with BGC-823, 75.7 µM; with A549, 11.8 µM; in the assay on A2780, 22.2 µM.

Regarding `O=C1/C(=C\c2ccncc2)c2c(ncn2COCc2ccccc2)CCN1Cc1ccccc1`, the IC50 is 67.1 µM with HCT-116; over 100 µM in the assay with HepG2; over 100 µM in the assay with BGC-823; 36 µM in the assay with A549; over 100 µM with A2780.

On to `Cc1ccccc1CN1CCc2ncn(COCc3ccccc3)c2/C(=C/c2ccccc2)C1=O`, for which the IC50 is 24.7 µM in the assay with HCT-116; 53.3 µM with HepG2; 31.3 µM in the assay on BGC-823; 25.6 µM with A549; 25.2 µM in the assay on A2780.

As to `CNc1nc2ccn(C)c(=O)c(Cc3cc(Br)c(OC)c(Br)c3)c-2n1` [CERATAMINE A], the IC50 in the assay on HCT-116 amounted to 12.4 µM; in the assay with HepG2 it was 7.8 µM; with BGC-823 it was 20 µM; with A549, 26.8 µM; with A2780 it was 11.2 µM.

As for `O=C1/C(=C\c2ccccc2)c2c(ncn2COCc2ccccc2)CCN1Cc1ccc(F)cc1`, the IC50 in the assay with HCT-116 was determined as 11.2 µM; with HepG2, 39.4 µM; in the assay on BGC-823, 72.9 µM; in the assay with A549, 19.6 µM; with A2780 it was 24.8 µM.

Turning to `COc1ccc(CN2CCc3ncn(COCc4ccccc4)c3/C(=C/c3ccccc3)C2=O)cc1`, the IC50 was determined as 31.1 µM with HCT-116; 44.4 µM in the assay on HepG2; 71.6 µM in the assay on BGC-823; 46.8 µM in the assay on A549; 43.1 µM in the assay on A2780.

Turning to `COc1cc(/C=C2\C(=O)N(Cc3ccccc3)CCc3ncn(COCc4ccccc4)c32)cc(OC)c1OC`, the IC50 was 8.9 µM in the assay with HCT-116; 10 µM in the assay with HepG2; 12.9 µM in the assay with BGC-823; 8.56 µM in the assay on A549; 8.97 µM in the assay with A2780.

Consider `CC(C)(C)c1ccc(CN2CCc3ncn(COCc4ccccc4)c3/C(=C/c3ccccc3)C2=O)cc1`, for which the IC50 in the assay on HCT-116 worked out at 8.46 µM; with HepG2, 18 µM; in the assay on BGC-823 it was 27.8 µM; with A549, 20.6 µM; in the assay on A2780, 23.9 µM.

On to `O=C1/C(=C\c2ccc(C(F)(F)F)cc2)c2c(ncn2COCc2ccccc2)CCN1Cc1ccccc1`, for which the IC50 in the assay on HCT-116 was determined as 36 µM; in the assay with HepG2 it was 51.4 µM; with BGC-823 it was 42.6 µM; in the assay with A549, 52.5 µM; with A2780 it was 28.2 µM.

Turning to `Cc1cc(C)cc(CN2CCc3ncn(COCc4ccccc4)c3/C(=C/c3ccccc3)C2=O)c1`, the IC50 in the assay on HCT-116 came out at 6.23 µM; with HepG2 it was 40.9 µM; in the assay on BGC-823, 52.6 µM; in the assay with A549, 22.5 µM; in the assay with A2780 it was 31.3 µM.

The values above are taken from ChEMBL document CHEMBL4184278, “Synthesis and cytotoxicity of novel imidazo[4,5-d]azepine compounds derived from marine natural product ceratamine A” (Bioorg Med Chem Lett, 2018).
